Data reported in patent publication US9062043B2, “Fused tricyclic compounds as serine-threonine protein kinase and PARP modulators” (SENHWA BIOSCIENCES, INC., priority 2006, dated 2015).

Assays:
PARP = PARP (Homo sapiens (Human), UniProt P09874); assay: PARP assay (chemiluminescent PARP assay kit, Trevigen); type: biochemical; conditions: Table 12; for inhibition at 1 µM: read-out: PARP % inhib @ 1 uM; for inhibition at 20 µM: read-out: PARP % inhib @ 20 uM
Protocol: Modulatory activity of compounds described herein was assessed in vitro in cell-free CK2 assays. Modulatory activity of compounds described herein also are assessed in vitro in cell-free PARP assays. These assays are described hereafter.
PARP assays are conducted using a chemiluminescent PARP assay kit (Trevigen). Briefly, reactions are performed in Histone-coated strip wells, by adding 10 microliters test compound dissolved in 1×PARP Buffer (prepared by mixing 20×PARP buffer diluted with high-purity water) and 15 microliters diluted PARP-HSA enzyme (diluted in 1× PARP buffer, 0.1 unit per well) to 25 microliters PARP cocktail (prepared from 10×PARP cocktail and 10× activated DNA, both 2.5 microliters per well and 20 microliters per well of 1×PARP buffer). The reactions are incubated at ambient temperature for 60 minutes, then the liquid was removed. After washing the wells four times with PBS (200 ul), 50 microliters of STREP-HRP (Horseradish Peroxidase) solution (diluted 500-fold in 1× Strep-Diluent) was added and the reactions were allowed to incubate for 30 minutes at ambient temperature. The liquid was removed and, after washing the wells four times with PBS (200 ul), 50 microliters each of PeroxyGlo A and B (Chemiluminescent Horseradish Peroxidase substrates) are added and the resulting chemiluminescence quantified on the SpectraMax M5 plate reader.

[1] = test system: HCT-116 human colorectal carcinoma cells; assay: Cell proliferation assay, Alamar Blue, HCT-116; type: cell-based;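 also: cells exposed to compound for about 4 days, then Alamar Blue added and fluorescence read after about 4 h, medium-only wells as control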
[2] = HCT-116, Table 16, first HCT-116 column
[3] = HCT-116, Table 16, second HCT-116 column

Sequence of PARP (P09874 whole entry): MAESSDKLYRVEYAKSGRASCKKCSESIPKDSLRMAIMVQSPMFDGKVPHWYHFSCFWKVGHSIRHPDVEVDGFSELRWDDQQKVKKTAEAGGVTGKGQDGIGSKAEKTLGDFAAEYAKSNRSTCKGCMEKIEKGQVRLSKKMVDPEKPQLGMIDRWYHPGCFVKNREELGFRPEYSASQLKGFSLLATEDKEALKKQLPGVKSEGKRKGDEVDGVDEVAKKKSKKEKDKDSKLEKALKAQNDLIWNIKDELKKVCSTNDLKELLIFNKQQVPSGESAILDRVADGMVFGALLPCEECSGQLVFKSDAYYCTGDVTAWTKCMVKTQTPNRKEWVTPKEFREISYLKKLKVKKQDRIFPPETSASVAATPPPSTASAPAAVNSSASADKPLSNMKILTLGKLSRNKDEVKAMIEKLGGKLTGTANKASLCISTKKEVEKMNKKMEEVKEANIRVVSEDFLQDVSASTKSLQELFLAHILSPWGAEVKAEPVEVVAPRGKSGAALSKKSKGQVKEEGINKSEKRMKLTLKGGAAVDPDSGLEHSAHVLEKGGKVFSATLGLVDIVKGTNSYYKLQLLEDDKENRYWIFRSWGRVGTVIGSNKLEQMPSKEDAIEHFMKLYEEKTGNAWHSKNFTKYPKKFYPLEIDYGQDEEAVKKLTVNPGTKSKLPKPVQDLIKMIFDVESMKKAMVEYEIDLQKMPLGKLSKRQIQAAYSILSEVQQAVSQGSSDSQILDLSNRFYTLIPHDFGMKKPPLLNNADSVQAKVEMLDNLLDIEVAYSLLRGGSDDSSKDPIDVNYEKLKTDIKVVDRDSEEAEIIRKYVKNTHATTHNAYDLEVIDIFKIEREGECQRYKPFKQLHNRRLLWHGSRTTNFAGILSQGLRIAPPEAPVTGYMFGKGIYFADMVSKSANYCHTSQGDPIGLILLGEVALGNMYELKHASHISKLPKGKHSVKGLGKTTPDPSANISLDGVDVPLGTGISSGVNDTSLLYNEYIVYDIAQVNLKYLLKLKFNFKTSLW

SMILES: O=C(O)c1ccc2c(c1)[nH]c(=O)c1ccsc12
- inhibition at 1 µM (PARP): 58%
- inhibition at 20 µM (PARP): 90%
- IC50 (PARP): 1 µM

SMILES: COC(=O)c1ccc2c(c1)[nH]c(=O)c1ccsc12
- inhibition at 1 µM (PARP): 27%
- inhibition at 20 µM (PARP): 84%

SMILES: O=C(O)c1ccc2c(c1)[nH]c(=O)c1cc(Br)sc12
- inhibition at 1 µM (PARP): 39%
- inhibition at 20 µM (PARP): 84%

SMILES: CC(C)(C)OC(=O)CCNC(=O)c1ccc2c(c1)[nH]c(=O)c1ccsc12
- inhibition at 1 µM (PARP): 40%
- inhibition at 20 µM (PARP): 82%

SMILES: O=C(Nc1ccccc1)c1ccc2c(c1)[nH]c(=O)c1ccsc12
- inhibition at 1 µM (PARP): 0%
- inhibition at 20 µM (PARP): 22%

SMILES: COC(=O)CNC(=O)c1ccc2c(c1)[nH]c(=O)c1ccsc12
- inhibition at 1 µM (PARP): 47%
- inhibition at 20 µM (PARP): 93%

SMILES: O=C(O)CCNC(=O)c1ccc2c(c1)[nH]c(=O)c1ccsc12
- inhibition at 1 µM (PARP): 35%
- inhibition at 20 µM (PARP): 95%

SMILES: O=C(O)CNC(=O)c1ccc2c(c1)[nH]c(=O)c1ccsc12
- inhibition at 1 µM (PARP): 31%
- inhibition at 20 µM (PARP): 97%

SMILES: O=C(Nc1nccs1)c1ccc2c(c1)[nH]c(=O)c1ccsc12
- inhibition at 1 µM (PARP): 0%
- inhibition at 20 µM (PARP): 52%

SMILES: COc1ccc(NC(=O)c2ccc3c(c2)[nH]c(=O)c2ccsc23)c(OC)c1
- inhibition at 1 µM (PARP): 0%
- inhibition at 20 µM (PARP): 32%

SMILES: O=C(Nc1ccc(N2CCOCC2)cc1)c1ccc2c(c1)[nH]c(=O)c1ccsc12
- inhibition at 1 µM (PARP): 0%
- inhibition at 20 µM (PARP): 37%

SMILES: O=C(Nc1cccnc1)c1ccc2c(c1)[nH]c(=O)c1ccsc12
- inhibition at 1 µM (PARP): 0%
- inhibition at 20 µM (PARP): 62%

SMILES: COc1ccccc1NC(=O)c1ccc2c(c1)[nH]c(=O)c1ccsc12
- inhibition at 1 µM (PARP): 0%
- inhibition at 20 µM (PARP): 24%

SMILES: O=C(Nc1ccc(Cl)cc1)c1ccc2c(c1)[nH]c(=O)c1ccsc12
- inhibition at 1 µM (PARP): 0%
- inhibition at 20 µM (PARP): 55%

SMILES: O=C(NCCc1cnc[nH]1)c1ccc2c(c1)[nH]c(=O)c1ccsc12
- inhibition at 1 µM (PARP): 83%
- inhibition at 20 µM (PARP): 97%
- IC50 (PARP): 0.2 µM

SMILES: O=C(NCCN1CCOCC1)c1ccc2c(c1)[nH]c(=O)c1ccsc12
- inhibition at 1 µM (PARP): 77%
- inhibition at 20 µM (PARP): 96%
- IC50 (PARP): 0.5 µM

SMILES: N#Cc1ccc2c(c1)[nH]c(=O)c1ccsc12
- inhibition at 1 µM (PARP): 51%
- IC50 (PARP): 0.5 µM

SMILES: O=c1[nH]c2cc(-c3nn[nH]n3)ccc2c2sccc12
- inhibition at 1 µM (PARP): 39%

SMILES: CN(C)CCn1c(=O)c2ccsc2c2ccc(C(=O)O)cc21
- inhibition at 1 µM (PARP): 5%

SMILES: COC(=O)c1ccc2c3sccc3c(=O)n(CCCO)c2c1
- inhibition at 1 µM (PARP): 40%

SMILES: O=C(O)c1ccc2c(c1)nc(OCCCO)c1ccsc12
- IC50 [1, 2]: > 10 µM

SMILES: O=C(NCCCO)c1ccc2c(c1)nc(NCCCO)c1ccsc12
- IC50 [1, 2]: > 10 µM

SMILES: O=C(O)c1ccc2c(c1)nc(NCCCO)c1ccsc12
- IC50 [1, 2]: > 10 µM

SMILES: O=C(O)c1ccc2c(c1)nc(NCCO)c1ccsc12
- IC50 [1, 2]: > 10 µM

SMILES: O=C(O)c1ccc2c(c1)nc(NCc1ccccn1)c1ccsc12
- IC50 [1, 2]: > 10 µM

SMILES: O=C(O)c1ccc2c(c1)nc(NCc1cccnc1)c1ccsc12
- IC50 [1, 2]: > 10 µM

SMILES: O=C(O)c1ccc2c(c1)nc(NCCN1CCOCC1)c1ccsc12
- IC50 [1, 2]: > 10 µM

SMILES: O=C(O)c1ccc2c(c1)nc(NCc1ccncc1)c1ccsc12
- IC50 [1, 2]: > 10 µM

SMILES: COc1ccccc1Nc1nc2cc(C(=O)O)ccc2c2sccc12
- IC50 [1, 2]: > 10 µM

SMILES: O=C(O)c1ccc2c(c1)nc(Nc1cccc(O)c1)c1ccsc12
- IC50 [1, 2]: > 10 µM

SMILES: COc1ccc(Nc2nc3cc(C(=O)O)ccc3c3sccc23)c(OC)c1
- IC50 [1, 2]: > 10 µM

SMILES: O=C(O)c1ccc2c(c1)nc(NCCN1CCCC1)c1ccsc12
- IC50 [1, 2]: > 10 µM

SMILES: Clc1nc2ccccc2c2sccc12
- IC50 [1, 2]: > 10 µM

SMILES: N#Cc1ccc2c(c1)nc(Cl)c1ccsc12
- IC50 [1, 2]: > 10 µM

SMILES: c1ccc(Nc2nc3ccccc3c3sccc23)cc1
- IC50 [1, 2]: > 10 µM

SMILES: CN(C)CCNc1nc2ccccc2c2sccc12
- IC50 [1, 2]: 2 µM

SMILES: O=C(O)c1ccc2c(c1)nc(N1CCOCC1)c1ccsc12
- IC50 [1, 2]: > 10 µM

SMILES: O=C(O)c1ccc2c(c1)nc(NCCc1ccccc1)c1ccsc12
- IC50 [1, 2]: > 10 µM

SMILES: O=C(O)CNc1nc2cc(C(=O)O)ccc2c2sccc12
- IC50 [1, 2]: > 10 µM

SMILES: O=C(O)c1ccc2c(c1)nc(Nc1nc3ccccc3[nH]1)c1ccsc12
- IC50 [1, 2]: > 10 µM

SMILES: O=C(O)c1ccc2c(c1)nc(N1CCCC1)c1ccsc12
- IC50 [1, 2]: > 10 µM

SMILES: CN(c1ccccc1)c1nc2cc(C(=O)O)ccc2c2sccc12
- IC50 [1, 2]: > 10 µM

SMILES: O=C(O)c1ccc2c(c1)nc(Nc1ccc(F)cc1)c1ccsc12
- IC50 [1, 2]: > 10 µM

SMILES: Cc1ccccc1Nc1nc2cc(C(=O)O)ccc2c2sccc12
- IC50 [1, 2]: > 10 µM

SMILES: CCN(c1ccccc1)c1nc2cc(C(=O)O)ccc2c2sccc12
- IC50 [1, 2]: > 10 µM

SMILES: O=C(O)c1ccc2c(c1)nc(Nc1ccc(Cl)cc1)c1ccsc12
- IC50 [1, 2]: > 10 µM

SMILES: O=C(O)c1ccc2c(c1)nc(Nc1ccc(F)cc1F)c1ccsc12
- IC50 [1, 2]: > 10 µM

SMILES: O=C(O)c1ccc2c(c1)nc(NC1CC1)c1ccsc12
- IC50 [1, 2]: > 10 µM

SMILES: O=C(O)c1ccc2c(c1)nc(N1CCc3ccccc31)c1ccsc12
- IC50 [1, 2]: > 10 µM

SMILES: COc1ccc(Nc2nc3cc(C(=O)O)ccc3c3sccc23)cc1Cl
- IC50 [1, 2]: > 10 µM

SMILES: O=C(O)c1ccc2c(c1)nc(Nc1ccccc1O)c1ccsc12
- IC50 [1, 2]: > 10 µM

SMILES: O=C(O)c1ccc2c(c1)nc(Nc1ccc(N3CCOCC3)cc1)c1ccsc12
- IC50 [1, 2]: > 10 µM

SMILES: COc1ccc(OC)c(Nc2nc3cc(C(=O)O)ccc3c3sccc23)c1
- IC50 [1, 2]: > 10 µM

SMILES: COC(=O)c1ccc2c(c1)nc(Nc1ccccc1)c1ccsc12
- IC50 [1, 2]: > 10 µM

SMILES: CS(=O)(=O)NC(=O)c1ccc2c(c1)nc(Nc1ccccc1)c1ccsc12
- IC50 [1, 2]: > 10 µM

SMILES: CN(C)CCNc1nc2cc(-c3nnn[nH]3)ccc2c2sccc12
- IC50 [1, 2]: > 10 µM

SMILES: N#Cc1ccc2c(c1)nc(Nc1ccccc1)c1ccsc12
- IC50 [1, 2]: > 10 µM

SMILES: NC(=O)c1ccc2c(c1)nc(Nc1ccccc1)c1ccsc12
- IC50 [1, 2]: 9 µM

SMILES: O=c1[nH]c(-c2ccc3c(c2)nc(Nc2ccccc2)c2ccsc23)no1
- IC50 [1, 2]: > 10 µM

SMILES: Fc1ccc(Nc2nc3cc(-c4nnn[nH]4)ccc3c3sccc23)cc1
- IC50 [1, 2]: > 10 µM

SMILES: Fc1ccc(Nc2nc3cc(-c4nnn[nH]4)ccc3c3sccc23)cc1Cl
- IC50 [1, 2]: > 10 µM

SMILES: COc1cccc(Nc2nc3cc(-c4nnn[nH]4)ccc3c3sccc23)c1
- IC50 [1, 2]: > 10 µM

SMILES: Clc1ccc(Nc2nc3cc(-c4nnn[nH]4)ccc3c3sccc23)cc1
- IC50 [1, 2]: > 10 µM

SMILES: COc1ccc(Nc2nc3cc(-c4nnn[nH]4)ccc3c3sccc23)cc1Cl
- IC50 [1, 2]: > 10 µM

SMILES: CC(C)Oc1cccc(Nc2nc3cc(-c4nnn[nH]4)ccc3c3sccc23)c1
- IC50 [1, 3]: > 10 µM

SMILES: COc1cc(Nc2nc3cc(-c4nnn[nH]4)ccc3c3sccc23)ccc1F
- IC50 [1, 3]: > 10 µM

SMILES: CCOc1cccc(Nc2nc3cc(-c4nnn[nH]4)ccc3c3sccc23)c1
- IC50 [1, 3]: > 10 µM

SMILES: CCc1cccc(Nc2nc3cc(-c4nnn[nH]4)ccc3c3sccc23)c1
- IC50 [1, 3]: > 10 µM

SMILES: c1cc2c(Nc3ccc4c(c3)OCCO4)nc3cc(-c4nnn[nH]4)ccc3c2s1
- IC50 [1, 3]: > 10 µM

SMILES: COC(=O)c1ccc2c(c1)nc(Nc1ccccc1)c1ncsc12
- IC50 [1, 3]: > 10 µM

SMILES: O=C(O)c1ccc2c(c1)nc(Nc1cccc(Oc3ccccc3)c1)c1ccsc12
- IC50 [1, 3]: > 10 µM

SMILES: CCCNC(=O)c1cccc(Nc2nc3cc(C(=O)O)ccc3c3sccc23)c1
- IC50 [1, 3]: > 10 µM

SMILES: O=C(O)c1ccc2c(c1)nc(Nc1cccc(C(=O)N3CCOCC3)c1)c1ccsc12
- IC50 [1, 3]: > 10 µM

SMILES: O=C(O)CNC(=O)c1cccc(Nc2nc3cc(C(=O)O)ccc3c3sccc23)c1
- IC50 [1, 3]: > 10 µM

SMILES: CN(C)CCNC(=O)c1cccc(Nc2nc3cc(C(=O)O)ccc3c3sccc23)c1
- IC50 [1, 3]: > 10 µM

SMILES: O=C(O)c1ccc2c(c1)nc(Nc1cccc(C(=O)NC3CC3)c1)c1ccsc12
- IC50 [1, 3]: > 10 µM

SMILES: CN(C)CCNc1nc2cc(-c3nnn[nH]3)ccc2c2cnccc12
- IC50 ([1]; HCT-116, Table 18): > 10 µM

SMILES: CN(C)CCNc1nc2cc(C#N)ccc2c2cnccc12
- IC50 ([1]; HCT-116, Table 18): 1.6 µM

SMILES: CNc1ncc2c(n1)c(NC1CC1)nc1cc(C(=O)O)ccc12
- IC50 ([1]; HCT-116, Table 18): > 10 µM

SMILES: COC(=O)c1ccc2c(c1)nc(Cl)c1ccsc12 [drawing 842]
- IC50 [1, 2]: > 10 µM

SMILES: C#Cc1cccc(Nc2nc3cc(C(=O)O)ccc3c3sccc23)c1 [drawing 967]
- IC50 [1, 3]: > 10 µM
